Values quoted from earlier work in US12383593B2, “Organic pain relief and hair growth composition” (The Tao Talit Corporation, priority 2021, dated 2025).

What was measured:
[1] = tested on: orofacial nociception; details: in comparison with S. lavandulifolia essential oil
[2] = tested on: MAPKs and the NF-κB pathway; details: mouse peritoneal macrophages
[3] = tested on: lymphoma cell line
[4] = tested on: capsaicin irritancy, sprains, heat hypersensitivity and headaches

## CC(C)=CCCC(C)(O)C1CC=C(C)CC1 (stereo not drawn) [(−)-α-bisabolol, 6-methyl-2-(4-methylcyclohex-3-en-1-yl)-hept-5-en-2-ol]
ethanol
  solubility in ethanol: soluble
Water and glycerin
  solubility in water and glycerin: poorly soluble
[1]
  antinociceptive effect in the pain models: stronger effect

## CC1=CCC2CC1C2(C)C (stereo not drawn) [Alpha-pinene, α-pinene]
[2]
  anti-inflammatory activity: anti-inflammatory activity through the suppression of mitogen-activated protein kinases (MAPKs) and the nuclear factor-kappa B (NF-κB) pathway

## C=C1C2CCC(C2)C1(C)C (stereo not drawn) [Camphene]
other
  solubility in organic solvents: very soluble
  solubility in water: nearly insoluble

## C=C(C)[C@H]1CC=C(C)CC1 [limonene, Limonene]
[3]; lymphoma cell line
  action on a lymphoma cell line: anti-proliferative action
[3]; normal lymphocytes
  normal lymphocyte viability: without modifying normal lymphocyte viability

## CC1CCC(C(C)C)C(O)C1 (stereo not drawn) [menthol, Menthol]
[4]; high concentrations, topical use or intraplantar injection
  cold allodynia and hyperalgesia: generated cold allodynia and hyperalgesia
[4]; low to moderate concentrations, topical
  analgesic effect of topically applied menthol: inhibit capsaicin irritancy, sprains, heat hypersensitivity and headaches

## Cc1ccc(C(C)C)cc1 [p-Cymene]
other
  solubility in organic solvents: miscible
  solubility in water: insoluble
